Experimental data as given in ChEMBL document CHEMBL1201862, “PubChem BioAssay data set” (2004).
Calls of active or inactive are those of the source.

How the values were obtained:
[1] = HIV-1 Vif–A3G interaction blockers – biochemical, TR-FRET, GST-Vif 1-94, biotin-A3G peptide, dose response retest, primary screen (AID 1117319); format: functional;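 further: TR-FRET signal of purified GST-Vif binding a biotinylated A3G peptide; inhibitors lower the FRET signal by blocking Vif and A3G binding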
Protein Tat = Protein Tat (Human immunodeficiency virus type 1 group M subtype B (isolate HXB2)(HIV-1), UniProt P04608); format: functional;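 further: tat binding to TAR RNA read out by fluorescence polarization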
Protein Tat, sequence (P04608 whole entry): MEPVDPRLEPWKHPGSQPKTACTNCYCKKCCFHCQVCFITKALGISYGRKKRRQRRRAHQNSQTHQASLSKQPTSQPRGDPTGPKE

[2] = molecular target: Glutathione-S-transferase (Schistosoma japonicum, UniProt Q26513); assay: GST-antibody interaction or FRET quenching – biochemical, TR-FRET, artefact control for Vif-APOBEC3G degradation inhibitor project, dose response (AID 1117362); format: functional
Glutathione-S-transferase, sequence (Q26513 whole entry): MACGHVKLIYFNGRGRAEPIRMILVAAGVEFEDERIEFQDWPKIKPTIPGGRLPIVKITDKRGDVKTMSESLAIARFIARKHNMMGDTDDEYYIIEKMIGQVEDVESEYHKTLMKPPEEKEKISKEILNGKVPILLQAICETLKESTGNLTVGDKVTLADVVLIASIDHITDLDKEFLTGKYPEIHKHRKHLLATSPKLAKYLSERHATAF

SUMO-activating enzyme [3] = molecular target: T1, SUMO-activating enzyme (Homo sapiens, UniProt Q9UBT2); assay: blockers of SAE1/SAE2–UBC9 SUMO transfer – biochemical, HTRF, uHTS, primary screen (AID 2006); format: protein-complex assay
T1 sequence (Q9UBE0 whole entry): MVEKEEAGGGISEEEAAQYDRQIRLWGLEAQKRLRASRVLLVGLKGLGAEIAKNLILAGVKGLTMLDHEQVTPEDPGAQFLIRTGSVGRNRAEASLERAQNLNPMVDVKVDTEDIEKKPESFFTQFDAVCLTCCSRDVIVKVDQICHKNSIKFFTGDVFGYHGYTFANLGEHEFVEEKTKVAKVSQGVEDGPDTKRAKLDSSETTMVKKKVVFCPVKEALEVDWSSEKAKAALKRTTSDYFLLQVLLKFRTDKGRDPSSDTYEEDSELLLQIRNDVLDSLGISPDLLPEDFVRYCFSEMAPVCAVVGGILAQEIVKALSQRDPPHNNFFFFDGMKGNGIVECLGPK
T1 sequence (Q9UBT2 whole entry): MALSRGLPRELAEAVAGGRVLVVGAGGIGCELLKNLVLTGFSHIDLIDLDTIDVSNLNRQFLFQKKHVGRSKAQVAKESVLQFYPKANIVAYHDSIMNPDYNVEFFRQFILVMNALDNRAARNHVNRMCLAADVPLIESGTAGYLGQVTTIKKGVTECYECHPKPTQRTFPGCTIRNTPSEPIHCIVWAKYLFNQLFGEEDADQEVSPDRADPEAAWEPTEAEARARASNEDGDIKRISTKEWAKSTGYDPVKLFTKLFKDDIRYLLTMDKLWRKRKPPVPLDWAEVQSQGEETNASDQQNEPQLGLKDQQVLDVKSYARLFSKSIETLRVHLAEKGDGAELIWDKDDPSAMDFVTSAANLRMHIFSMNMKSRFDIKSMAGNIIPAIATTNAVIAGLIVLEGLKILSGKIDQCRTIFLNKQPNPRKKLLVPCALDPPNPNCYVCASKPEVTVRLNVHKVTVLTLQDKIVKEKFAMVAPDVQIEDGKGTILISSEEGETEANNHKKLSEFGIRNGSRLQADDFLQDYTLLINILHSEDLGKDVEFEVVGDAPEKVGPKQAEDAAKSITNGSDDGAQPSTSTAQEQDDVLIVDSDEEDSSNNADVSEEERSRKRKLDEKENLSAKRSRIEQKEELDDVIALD

[4] = molecular target: T2, Histone-lysine N-methyltransferase NSD2 (Homo sapiens, UniProt O96028); format: biochemical
T2 sequence (O96028 whole entry): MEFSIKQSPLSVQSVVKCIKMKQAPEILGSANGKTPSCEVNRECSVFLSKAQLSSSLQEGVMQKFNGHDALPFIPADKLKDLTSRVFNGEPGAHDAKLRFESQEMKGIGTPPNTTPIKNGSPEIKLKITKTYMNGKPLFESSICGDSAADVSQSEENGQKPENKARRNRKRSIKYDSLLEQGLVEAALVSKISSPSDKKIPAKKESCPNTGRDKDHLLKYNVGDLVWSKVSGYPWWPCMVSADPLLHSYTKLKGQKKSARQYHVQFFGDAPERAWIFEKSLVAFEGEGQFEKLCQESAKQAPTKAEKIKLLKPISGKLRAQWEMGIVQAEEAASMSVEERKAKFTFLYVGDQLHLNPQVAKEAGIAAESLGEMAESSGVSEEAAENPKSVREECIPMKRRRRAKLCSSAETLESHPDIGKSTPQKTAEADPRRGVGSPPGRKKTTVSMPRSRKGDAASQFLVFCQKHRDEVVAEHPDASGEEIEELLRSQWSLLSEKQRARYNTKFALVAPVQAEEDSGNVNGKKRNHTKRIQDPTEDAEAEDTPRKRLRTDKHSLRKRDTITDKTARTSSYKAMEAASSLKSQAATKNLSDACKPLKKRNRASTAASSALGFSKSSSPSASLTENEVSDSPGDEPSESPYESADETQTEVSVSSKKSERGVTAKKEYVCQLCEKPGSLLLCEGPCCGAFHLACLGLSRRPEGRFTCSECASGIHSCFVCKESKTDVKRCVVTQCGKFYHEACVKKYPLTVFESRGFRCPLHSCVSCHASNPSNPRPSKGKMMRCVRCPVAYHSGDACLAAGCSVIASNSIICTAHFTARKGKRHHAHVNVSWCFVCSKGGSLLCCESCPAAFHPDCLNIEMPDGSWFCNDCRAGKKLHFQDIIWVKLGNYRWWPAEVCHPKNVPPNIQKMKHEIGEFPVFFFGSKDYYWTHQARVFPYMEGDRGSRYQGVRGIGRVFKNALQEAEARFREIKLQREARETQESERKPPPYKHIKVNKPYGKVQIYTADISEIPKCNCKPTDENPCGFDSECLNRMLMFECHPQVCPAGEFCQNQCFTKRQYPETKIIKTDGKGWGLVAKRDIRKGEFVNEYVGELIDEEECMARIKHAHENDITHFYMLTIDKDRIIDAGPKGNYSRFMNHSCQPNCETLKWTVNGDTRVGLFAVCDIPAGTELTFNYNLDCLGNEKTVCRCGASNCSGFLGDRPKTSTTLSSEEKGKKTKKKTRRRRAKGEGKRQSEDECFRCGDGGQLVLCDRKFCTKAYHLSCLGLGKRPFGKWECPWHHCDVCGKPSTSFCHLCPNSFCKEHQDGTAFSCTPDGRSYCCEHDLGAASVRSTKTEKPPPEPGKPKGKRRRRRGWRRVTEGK

[5] = molecular target: T3, Sentrin-specific protease 8 (Homo sapiens, UniProt Q96LD8); format: functional
T3 sequence (Q96LD8 whole entry): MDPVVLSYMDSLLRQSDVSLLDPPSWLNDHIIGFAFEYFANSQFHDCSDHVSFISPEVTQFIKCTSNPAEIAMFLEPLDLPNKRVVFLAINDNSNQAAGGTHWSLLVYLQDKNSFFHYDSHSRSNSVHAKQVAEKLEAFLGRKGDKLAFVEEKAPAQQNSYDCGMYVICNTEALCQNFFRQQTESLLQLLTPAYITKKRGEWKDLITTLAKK

[6] = molecular target: T3, Sentrin-specific protease 8; format: functional; remark: listed apart in the source
SUMO-activating enzyme [7] = molecular target: T1, SUMO-activating enzyme; assay: blockers of UBC9-mediated SUMO conjugation – biochemical, AlphaScreen, SUMOylation inhibitor project, confirmation (AID 2018); format: functional
Caspase-6 = molecular target: T4, Caspase-6 (Homo sapiens, UniProt P55212); assay: inhibition of CASP6 peptide cleavage – biochemical, VEID-R110 fluorescence, cherry-pick, dose response (AID 720632)
T4 sequence (P55212 whole entry): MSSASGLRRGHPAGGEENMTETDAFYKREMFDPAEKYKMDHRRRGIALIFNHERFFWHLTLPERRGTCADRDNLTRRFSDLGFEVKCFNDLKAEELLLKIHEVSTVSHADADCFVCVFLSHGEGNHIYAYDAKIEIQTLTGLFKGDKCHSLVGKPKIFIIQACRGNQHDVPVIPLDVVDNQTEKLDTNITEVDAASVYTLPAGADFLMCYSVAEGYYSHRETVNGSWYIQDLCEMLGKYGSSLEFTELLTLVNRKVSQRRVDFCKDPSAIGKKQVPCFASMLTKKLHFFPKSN

[8] = molecular target: T5, Apoptotic protease-activating factor 1 (Homo sapiens, UniProt O14727); format: functional
T5 sequence (O14727 whole entry): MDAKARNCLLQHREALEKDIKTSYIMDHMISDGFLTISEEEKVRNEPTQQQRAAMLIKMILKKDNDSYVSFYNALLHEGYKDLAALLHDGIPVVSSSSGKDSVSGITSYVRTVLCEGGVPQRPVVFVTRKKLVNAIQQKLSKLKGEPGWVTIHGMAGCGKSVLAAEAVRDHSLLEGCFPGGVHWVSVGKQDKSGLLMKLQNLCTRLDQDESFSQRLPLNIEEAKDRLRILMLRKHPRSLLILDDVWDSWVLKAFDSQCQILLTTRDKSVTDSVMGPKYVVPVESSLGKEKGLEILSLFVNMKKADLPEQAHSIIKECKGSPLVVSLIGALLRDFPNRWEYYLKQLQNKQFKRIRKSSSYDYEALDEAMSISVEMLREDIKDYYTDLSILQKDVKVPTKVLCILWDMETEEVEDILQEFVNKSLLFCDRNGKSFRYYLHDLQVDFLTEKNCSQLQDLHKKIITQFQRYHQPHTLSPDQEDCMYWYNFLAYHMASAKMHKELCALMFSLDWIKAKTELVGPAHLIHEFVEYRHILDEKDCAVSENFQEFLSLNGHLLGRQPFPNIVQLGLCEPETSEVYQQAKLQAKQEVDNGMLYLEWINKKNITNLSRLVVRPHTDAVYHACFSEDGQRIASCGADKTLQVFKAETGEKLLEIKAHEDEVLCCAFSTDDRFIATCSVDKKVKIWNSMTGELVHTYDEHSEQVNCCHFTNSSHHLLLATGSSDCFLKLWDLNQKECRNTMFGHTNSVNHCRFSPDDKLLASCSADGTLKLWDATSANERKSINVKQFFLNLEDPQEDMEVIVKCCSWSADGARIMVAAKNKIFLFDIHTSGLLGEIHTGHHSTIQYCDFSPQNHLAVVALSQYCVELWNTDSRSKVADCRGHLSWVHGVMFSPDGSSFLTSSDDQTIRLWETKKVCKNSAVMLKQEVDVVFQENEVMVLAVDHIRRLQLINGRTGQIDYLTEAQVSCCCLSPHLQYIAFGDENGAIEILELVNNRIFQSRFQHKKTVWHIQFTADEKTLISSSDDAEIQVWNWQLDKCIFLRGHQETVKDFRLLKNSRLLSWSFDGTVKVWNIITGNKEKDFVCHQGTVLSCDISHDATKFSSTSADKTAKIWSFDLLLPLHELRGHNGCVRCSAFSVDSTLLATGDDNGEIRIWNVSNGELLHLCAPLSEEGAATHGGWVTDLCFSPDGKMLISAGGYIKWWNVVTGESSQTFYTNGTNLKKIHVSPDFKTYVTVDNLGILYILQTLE

[9] = molecular target: Tyrosyl-DNA phosphodiesterase 2 (Homo sapiens, UniProt O95551); assay: potency against TDP2 phosphodiesterase activity – biochemical, epi absorbance, IC50, dose response (AID 743297)
Tyrosyl-DNA phosphodiesterase 2, sequence (O95551 whole entry): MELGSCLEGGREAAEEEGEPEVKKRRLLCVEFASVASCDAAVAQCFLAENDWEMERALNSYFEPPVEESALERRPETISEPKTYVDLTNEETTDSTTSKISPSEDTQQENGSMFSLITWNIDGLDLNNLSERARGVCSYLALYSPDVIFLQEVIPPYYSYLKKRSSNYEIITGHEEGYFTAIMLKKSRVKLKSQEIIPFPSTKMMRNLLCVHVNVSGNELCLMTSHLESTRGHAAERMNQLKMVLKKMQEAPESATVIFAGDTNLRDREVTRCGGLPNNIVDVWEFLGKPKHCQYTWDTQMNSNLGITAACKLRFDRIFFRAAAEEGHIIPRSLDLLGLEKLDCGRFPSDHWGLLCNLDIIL

O=C(O)c1[nH]c2ccc(Cl)cc2c1CC(=O)N1CCN(C(=O)c2ccco2)CC1
active: IC50 [1] > 100 µM

CN1CCN(C(=O)CSc2nc(-c3cccs3)ccc2C#N)CC1
active: IC50 (Protein Tat) > 100 µM

O=C(NCCCN1CCOCC1)C1CC(=O)N(CCc2ccccc2)C1 (configuration not stated)
active: IC50 [1] > 100 µM

CN(C)c1cc(Cl)c2nonc2c1N
active: IC50 [2] > 100 µM | IC50 (SUMO-activating enzyme [3]) 16.2 µM | AC50 [4] 4.43 µM | IC50 [5] 8.12 µM | IC50 [6] 6.83 µM | IC50 (SUMO-activating enzyme [7]) 2.7 µM | AC50 (Caspase-6) 12.6 µM | IC50 [8] 16.8 µM | IC50 [9] 9.9 µM
